Data on two molecules can be found in US4105651A (The United States of America as represented by the …, priority 1976, dated 1978).

Where two headings read alike, the source gives them in different places.

The subject of the assay is opiate receptor sites. The source says:
The tests which were made in the laboratory were of the myenteric plexus-longitudinal muscle of the guinea pig ileum and the vas deferens of the mouse. In the whole animal the rates of onset and recovery are directly related to lipid solubility which facilitates drug movement to and from the brain.

Regarding `CC(C)C[C@H](NC(=O)[C@H](Cc1ccccc1)NC(=O)CNC(=O)CNC(=O)[C@@H](N)Cc1ccc(O)cc1)C(=O)O` [leucine-enkephalin, H-Tyr-Gly-Gly-Phe-Leu-OH], the “agonist activity: inhibition of electrically evoked contractions” value is, setting by setting: (guinea pig ileum) “dose-related inhibition”; (mouse vas deferens) “dose-related inhibition”.

With `CSCC[C@H](NC(=O)[C@H](Cc1ccccc1)NC(=O)CNC(=O)CNC(=O)[C@@H](N)Cc1ccc(O)cc1)C(=O)O` [methionine-enkephalin, H-Tyr-Gly-Gly-Phe-Met-OH], the “agonist activity: inhibition of electrically evoked contractions” value reads like this: (guinea pig ileum) “dose-related inhibition”; (mouse vas deferens) “dose-related inhibition”.
